Test system: A375 cells
Test: Aerobic glycolysis (NAD+) fluorescence of PFK15-treated A375 cells read out with C3N quantum dots
Assay type: cell-based
Settings: PFK15 20 nM, 12 h; then C3N quantum dots 1 μg/mL 2 h at 25° C.; excitation 400 nm
Procedure: A375 cells were selected as the samples to be tested with a cell concentration of 10^5.
[…] (PFK15, 20 nM) was added to the cell samples to be tested and incubated for 12 h. C3N quantum dots (with a diameter of 1 nm, a concentration of 1 μg/mL, a solvent of saline) were selected as the aerobic glycolysis detection product. 1 μL of C3N quantum dots were added to the samples to be tested and incubated for 2 h at 25° C. The fluorescence of the samples was observed by a fluorescence microscope (with an excitation wavelength of 400 nm). It can be seen that the fluorescence of the A375 cells with PFK15 treatment (PFK15 can block the aerobic glycolysis metabolism and reduce the NAD^+ concentration in cytoplasm) was decreased by 43% compared with that of the group without PFK15 treatment (results were shown in FIG. 5).

## O=C(C=Cc1ccc2ccccc2n1)c1ccncc1 [PFK15, 1-(4-pyridinyl)-3-(2-quinolinyl)-2-propen-1-one]
  decrease of fluorescence of A375 cells compared with group without PFK15 treatment: 43%

— US20240069027A1, “USE OF NITROGEN-DOPED CARBON FLUORESCENT QUANTUM DOT IN PREPARATION OF PRODUCT FOR DETECTING AEROBIC GLYCOLYSIS” (SHANGHAI NINTH PEOPLE'S HOSPITAL, SHANGHAI JIAOTONG …, priority 2020, published 2024)
